From patent US20100003246A1, “Novel heterocyclic compounds and uses therof” (priority 2008, published 2010)

target: T1, b-Raf(V600E) (Homo sapiens, UniProt P15056, V600E); test: Raf/Mek Amplified Luminescence Proximity Homogeneous Assay (Alpha Screen), b-Raf(V600E); assay type: biochemical; conditions: mutant b-Raf(V600E), read-out: mut-b-RAF (IC50 in uM)
T1 construct: made in house
Summary of the method: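 IC50 derived by non-linear regression from AlphaScreen luminescence of phospho-MEK (anti-p-MEK antibody). Reaction: ~4 pM b-Raf(V600E), ~10 nM kinase-dead biotinylated Mek, 60 min compound pre-incubation, then 3 h with ATP at room temperature in pH 7.5 Tris/MgCl2/DTT buffer, quenched with EDTA.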

T1 sequence (P15056 whole entry V600E): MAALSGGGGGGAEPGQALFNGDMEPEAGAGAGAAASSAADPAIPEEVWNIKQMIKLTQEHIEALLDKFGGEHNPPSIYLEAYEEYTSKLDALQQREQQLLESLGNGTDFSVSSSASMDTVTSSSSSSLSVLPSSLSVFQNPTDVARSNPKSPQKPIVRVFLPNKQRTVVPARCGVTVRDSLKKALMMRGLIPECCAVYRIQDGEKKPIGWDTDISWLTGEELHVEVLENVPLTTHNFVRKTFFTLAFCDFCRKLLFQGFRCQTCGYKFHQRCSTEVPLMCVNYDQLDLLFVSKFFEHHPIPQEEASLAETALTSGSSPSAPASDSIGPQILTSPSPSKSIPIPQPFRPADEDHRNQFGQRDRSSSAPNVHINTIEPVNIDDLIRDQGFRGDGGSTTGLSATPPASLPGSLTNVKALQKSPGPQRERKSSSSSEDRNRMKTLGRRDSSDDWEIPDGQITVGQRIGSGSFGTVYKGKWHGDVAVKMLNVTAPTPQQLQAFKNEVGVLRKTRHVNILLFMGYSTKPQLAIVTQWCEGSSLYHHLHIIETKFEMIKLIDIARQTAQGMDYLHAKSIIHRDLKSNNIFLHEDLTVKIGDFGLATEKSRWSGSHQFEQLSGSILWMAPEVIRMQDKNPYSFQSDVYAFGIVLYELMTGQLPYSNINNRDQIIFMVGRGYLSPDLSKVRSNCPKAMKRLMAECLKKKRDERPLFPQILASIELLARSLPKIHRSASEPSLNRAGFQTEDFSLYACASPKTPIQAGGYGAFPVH

Going from `COc1cc(-c2[nH]c(-c3cccc(-c4ccncc4)c3)nc2-c2ccncc2)cnc1N` [Compound 170, 3-methoxy-5-(4-(pyridin-4-yl)-2-(3-(pyridin-4-yl)phenyl)-1H-imidazol-5-yl)pyridin-2-amine] to `COc1cc(-c2[nH]c(-c3ccc4[nH]ccc4c3)nc2-c2ccncc2)cnc1N` [Compound 178, 5-(2-(1H-indol-5-yl)-4-(pyridin-4-yl)-1H-imidazol-5-yl)-3-methoxypyridin-2-amine], the IC50 rises from 0.0002 µM to 0.0009 µM (4.5-fold).

`COc1cc(-c2nc(-c3ccc(F)cc3)[nH]c2-c2ccnc(Nc3cccc(C(F)(F)F)c3)n2)cnc1N` [Compound 171, 4-(4-(6-amino-5-methoxypyridin-3-yl)-2-(4-fluorophenyl)-1H-imidazol-5-yl)-N-(3-(trifluoromethyl)phenyl) pyrimidin-2-amine] and `COc1cc(-c2nc(-c3ccc(F)cc3)[nH]c2-c2ccnc(Nc3cccc(F)c3)n2)cnc1N` [Compound 172, 4-(4-(6-amino-5-methoxypyridin-3-yl)-2-(4-fluorophenyl)-1H-imidazol-5-yl)-N-(3-fluorophenyl)pyrimidin-2-amine] are within 1.5-fold of each other in IC50: 0.0013 µM for the first, 0.0014 µM for the second.

Compared with `COc1cc(-c2nc(-c3ccc(F)cc3)[nH]c2-c2ccnc(C#N)c2)cnc1N` [Compound 173, 4-(4-(6-amino-5-methoxypyridin-3-yl)-2-(4-fluorophenyl)-1H-imidazol-5-yl)picolinonitrile], `COc1cc(-c2[nH]c(-c3ccc(F)cc3)nc2-c2ccnc(O)n2)cnc1N` [Compound 180, 4-(5-(6-amino-5-methoxypyridin-3-yl)-2-(4-fluorophenyl)-1H-imidazol-4-yl)pyrimidin-2-ol] is 4.5-fold higher in IC50: 0.197 µM for the first, 0.892 µM for the second.

Going from `CCNc1nccc(-c2nc(-c3ccc(F)cc3)[nH]c2-c2cnc(N)c(OC)c2)n1` [Compound 174, 4-(5-(6-amino-5-methoxypyridin-3-yl)-2-(4-fluorophenyl)-1H-imidazol-4-yl)-N-ethylpyrimidin-2-amine] to `CCCNc1nccc(-c2nc(-c3ccc(F)cc3)[nH]c2-c2cnc(N)c(OC)c2)n1` [Compound 175, 4-(5-(6-amino-5-methoxypyridin-3-yl)-2-(4-fluorophenyl)-1H-imidazol-4-yl)-N-propylpyrimidin-2-amine], the IC50 falls from 0.0023 µM to 0.0012 µM (1.9-fold). The second is the more potent here.

Compared with `CC[C@H](C)Nc1nccc(-c2nc(-c3ccc(F)cc3)[nH]c2-c2cnc(N)c(OC)c2)n1` [Compound 176, (S)-4-(5-(6-amino-5-methoxypyridin-3-yl)-2-(4-fluorophenyl)-1H-imidazol-4-yl)-N-sec-butylpyrimidin-2-amine], `CC[C@@H](C)Nc1nccc(-c2nc(-c3ccc(F)cc3)[nH]c2-c2cnc(N)c(OC)c2)n1` [Compound 181, (R)-4-(5-(6-amino-5-methoxypyridin-3-yl)-2-(4-fluorophenyl)-1H-imidazol-4-yl)-N-sec-butylpyrimidin-2-amine] is 2.2-fold higher in IC50: 0.0046 µM for the first, 0.0099 µM for the second.

Going from `CC(=O)c1cc(-c2[nH]c(-c3ccc(F)cc3)nc2-c2ccncc2)cnc1N` [Compound 177, 1-(2-amino-5-(2-(4-fluorophenyl)-4-(pyridin-4-yl)-1H-imidazol-5-yl)pyridin-3-yl)ethanone] to `Cc1c[nH]c2ncc(-c3[nH]c(-c4ccc(F)cc4)nc3-c3ccncc3)cc12` [Compound 182, 5-(2-(4-fluorophenyl)-4-(pyridin-4-yl)-1H-imidazol-5-yl)-3-methyl-1H-pyrrolo[2,3-b]pyridine], the IC50 falls from 0.003 µM to 0.0002 µM (15-fold).

`COCCCNc1nccc(-c2nc(-c3ccc(F)cc3)[nH]c2-c2cnc(N)c(OC)c2)n1` [Compound 179, 4-(5-(6-amino-5-methoxypyridin-3-yl)-2-(4-fluorophenyl)-1H-imidazol-4-yl)-N-(3-methoxypropyl)pyrimidin-2-amine] and `COc1cc(-c2[nH]c(-c3ccc(F)cc3)nc2-c2ccnc(NCC3CC3)n2)cnc1N` [Compound 183, 4-(5-(6-amino-5-methoxypyridin-3-yl)-2-(4-fluorophenyl)-1H-imidazol-4-yl)-N-(cyclopropylmethyl) pyrimidin-2-amine] are within 1.5-fold of each other in IC50: 0.001 µM for the first, 0.0007 µM for the second.

First: COc1cc(-c2nc(C(C)(C)C)[nH]c2-c2ccnc(Nc3ccc(N4C[C@@H](C)O[C@@H](C)C4)nc3)n2)cnc1N [Compound 184, 4-(4-(6-amino-5-methoxypyridin-3-yl)-2-tert-butyl-1H-imidazol-5-yl)-N-(6-((2R,6S)-2,6-dimethylmorpholino)-pyridin-3-yl)pyrimidin-2-amine]
Second: COc1cc(-c2[nH]c(-c3ccc(F)cc3)nc2-c2ccnc(Nc3ccc(N4C[C@@H](C)O[C@@H](C)C4)nc3)n2)cnc1N [Compound 187, 4-(5-(6-amino-5-methoxypyridin-3-yl)-2-(4-fluorophenyl)-1H-imidazol-4-yl)-N-(6-((2S,6R)-2,6-dimethylmorpholino)-pyridin-3-yl)pyrimidin-2-amine]
The IC50 of the first is 1.7-fold lower: 0.0003 µM for the first, 0.0005 µM for the second. The first is the more potent here.

First: COc1cc(-c2nc(C(C)(C)C)[nH]c2-c2ccnc(N[C@@H]3CCN(C(C)=O)C3)n2)cnc1N [Compound 185, (R)-1-(3-(4-(4-(6-amino-5-methoxypyridin-3-yl)-2-tert-butyl-1H-imidazol-5-yl)pyrimidin-2-ylamino)pyrrolidin-1-yl)ethanone]
Second: COc1cc(-c2nc(C(C)(C)C)[nH]c2-c2ccnc(N)n2)cnc1N [Compound 201, 4-(4-(6-amino-5-methoxypyridin-3-yl)-2-tert-butyl-1H-imidazol-5-yl)pyrimidin-2-amine]
The IC50 of the first is 6.4-fold higher: 0.0032 µM for the first, 0.0005 µM for the second. The second is the more potent here.

Going from `COc1cc(-c2nccc(-c3[nH]c(C(C)(C)C)nc3-c3cnc(N)c(OC)c3)n2)cnc1N` [Compound 186, 5-(4-(4-(6-amino-5-methoxypyridin-3-yl)-2-tert-butyl-1H-imidazol-5-yl)pyrimidin-2-yl)-3-methoxypyridin-2-amine] to `COc1ccc(CNc2nccc(-c3[nH]c(C(C)(C)C)nc3-c3cnc(N)c(OC)c3)n2)cc1` [Compound 192, 4-(4-(6-amino-5-methoxypyridin-3-yl)-2-tert-butyl-1H-imidazol-5-yl)-N-(4-methoxybenzyl)pyrimidin-2-amine], the IC50 falls from 0.0299 µM to 0.0002 µM (150-fold).

`COc1cc(-c2nc(C(C)(C)C)[nH]c2-c2ccnc(Nc3ccc4c(c3)OC(F)(F)O4)n2)cnc1N` [Compound 189, 4-(4-(6-amino-5-methoxypyridin-3-yl)-2-tert-butyl-1H-imidazol-5-yl)-N-(2,2-difluorobenzo[d][1,3]dioxol-5-yl)pyrimidin-2-amine] and `COc1cc(-c2nc(C(C)(C)C)[nH]c2-c2ccnc(Nc3cccc(C(F)(F)F)c3)n2)cnc1N` [Compound 191, 4-(4-(6-amino-5-methoxypyridin-3-yl)-2-tert-butyl-1H-imidazol-5-yl)-N-(3-(trifluoromethyl)phenyl) pyrimidin-2-amine] are within 1.5-fold of each other in IC50: 0.0003 µM for the first, 0.0004 µM for the second.

First: COc1cc(-c2nc(C(C)(C)C)[nH]c2-c2ccnc(Nc3cccc(OC(F)(F)F)c3)n2)cnc1N [Compound 190, 4-(4-(6-amino-5-methoxypyridin-3-yl)-2-tert-butyl-1H-imidazol-5-yl)-N-(3-(trifluoromethoxy)phenyl) pyrimidin-2-amine]
Second: COc1cc(-c2nc(-c3ccc(F)cc3)[nH]c2-c2ccnc(NC[C@H](C)NS(C)(=O)=O)n2)cnc1N [Compound 195, (S)-N-(1-(4-(4-(6-amino-5-methoxypyridin-3-yl)-2-(4-fluorophenyl)-1H-imidazol-5-yl)pyrimidin-2-ylamino)propan-2-yl)methanesulfonamide]
The IC50 of the first is 3-fold higher: 0.0003 µM for the first, 0.0001 µM for the second. The second is the more potent here.

First: COc1cc(-c2[nH]c(-c3ccc(F)cc3)nc2-c2ccnc(N[C@@H]3CCN(C(C)=O)C3)n2)cnc1N [Compound 193, (R)-1-(3-(4-(5-(6-amino-5-methoxypyridin-3-yl)-2-(4-fluorophenyl)-1H-imidazol-4-yl)pyrimidin-2-ylamino)pyrrolidin-1-yl)ethanone]
Second: COc1cc(-c2[nH]c(-c3ccc(F)cc3)nc2-c2ccnc(N[C@H]3CCN(C(C)=O)C3)n2)cnc1N [Compound 194, (S)-1-(3-(4-(5-(6-amino-5-methoxypyridin-3-yl)-2-(4-fluorophenyl)-1H-imidazol-4-yl)pyrimidin-2-ylamino)pyrrolidin-1-yl)ethanone]
The IC50 of the first is 4.8-fold higher: 0.038 µM for the first, 0.008 µM for the second.

Compared with `COc1cc(-c2nc(-c3ccc(F)cc3)[nH]c2-c2ccnc(NC[C@H](C)NC(=O)[C@@H](C)OC)n2)cnc1N` [Compound 196, (R)-N-((S)-1-(4-(4-(6-amino-5-methoxypyridin-3-yl)-2-(4-fluorophenyl)-1H-imidazol-5-yl)pyrimidin-2-ylamino)propan-2-yl)-2-methoxypropanamide], `COc1cc(-c2nc(-c3ccc(F)cc3)[nH]c2-c2ccnc(NC[C@H](C)NC(=O)[C@H](C)OC)n2)cnc1N` [Compound 197, (S)-N-((S)-1-(4-(4-(6-amino-5-methoxypyridin-3-yl)-2-(4-fluorophenyl)-1H-imidazol-5-yl)pyrimidin-2-ylamino)propan-2-yl)-2-methoxypropanamide] is 2-fold lower in IC50: 0.0002 µM for the first, 0.0001 µM for the second. The second is the more potent here.

First: COc1cc(-c2[nH]c(-c3ccc(F)cc3)nc2-c2ccnc(N[C@@H]3CCN(S(C)(=O)=O)C3)n2)cnc1N [Compound 199, (R)-4-(5-(6-amino-5-methoxypyridin-3-yl)-2-(4-fluorophenyl)-1H-imidazol-4-yl)-N-(1-(methylsulfonyl)pyrrolidin-3-yl)pyrimidin-2-amine]
Second: COc1cc(-c2[nH]c(-c3ccc(F)cc3)nc2-c2ccnc(N[C@H]3CCN(S(C)(=O)=O)C3)n2)cnc1N [Compound 200, (S)-4-(5-(6-amino-5-methoxypyridin-3-yl)-2-(4-fluorophenyl)-1H-imidazol-4-yl)-N-(1-(methylsulfonyl)pyrrolidin-3-yl)pyrimidin-2-amine]
The IC50 of the first is 3.8-fold higher: 0.015 µM for the first, 0.004 µM for the second.

For `COCC(=O)NCCNc1nccc(-c2nc(-c3ccc(F)cc3)[nH]c2-c2cc(C)c3ncnn3c2)n1` [Compound 202, N-(2-(4-(2-(4-fluorophenyl)-5-(8-methyl-[1,2,4]triazolo[1,5-a]pyridin-6-yl)-1H-imidazol-4-yl)pyrimidin-2-ylamino)ethyl)-2-methoxyacetamide], the IC50 was 0.025 µM.
